In one test the target is β2-adrenoceptor. The settings on record: read-out: affinity value for the β2-adrenoceptor; ref Baker et al., [2003b]; cited from earlier work.
The target in test [1] is T1, human β1-adrenoceptor (Homo sapiens, UniProt P08588). As to the kind of experiment: CRE-mediated SPAP transcription reporter gene assay in CHO-β1 cells. It counts as cell-based. The following applies: for Proportion of low-affinity secondary site (site 2) bound: calculated from affinity values of the functional responses.
In test [2] the target is T1, human β1-adrenoceptor. As to the kind of experiment: Automated live cell BODIPY-TMR-CGP binding, ImageXpress ultra confocal plate reader, CHO-β1 cells. The following applies: 100 nM BOD-CGP; from two-site inhibition curve of the named antagonist, 1 h incubations.

The pEC50 is −log10 of the EC50, conventionally taken in molar units. Read a low pEC50 as a high EC50.

T1 sequence (P08588 whole entry): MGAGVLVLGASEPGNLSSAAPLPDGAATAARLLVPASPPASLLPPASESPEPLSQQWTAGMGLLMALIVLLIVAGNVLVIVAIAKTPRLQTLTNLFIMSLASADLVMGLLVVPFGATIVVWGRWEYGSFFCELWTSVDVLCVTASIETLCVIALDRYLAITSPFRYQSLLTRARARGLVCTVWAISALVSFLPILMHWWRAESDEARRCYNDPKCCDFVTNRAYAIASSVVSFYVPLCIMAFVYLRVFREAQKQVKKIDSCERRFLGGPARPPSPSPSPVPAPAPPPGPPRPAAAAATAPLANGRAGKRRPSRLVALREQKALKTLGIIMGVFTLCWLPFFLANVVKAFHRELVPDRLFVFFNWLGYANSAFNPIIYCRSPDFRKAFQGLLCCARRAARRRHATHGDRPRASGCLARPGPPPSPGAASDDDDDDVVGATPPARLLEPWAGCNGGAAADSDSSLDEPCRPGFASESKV

Regarding “Bordifluoropyrromethane-tetramethylrhodamine-(±)CGP 12177 [BODIPY-TMR-CGP]”, the Kd on β2-adrenoceptor is 25 nM. Also, the “Proportion of low-affinity secondary site (site 2) bound” value on human β1-adrenoceptor [1] (2 nM BODIPY-TMR-CGP) was 2%; at human β1-adrenoceptor [1] (20 nM BODIPY-TMR-CGP), “circa 17%”. Besides, the “EMAX (% cimaterol)” value on human β1-adrenoceptor [1] (% of the maximum cimaterol response, CHO-β1 cells) was 25.6 ± 3.2 %. At human β1-adrenoceptor [1] (agonist stimulation of SPAP transcription, CHO-β1 cells), the negative-log EC50 (pEC50) amounted to 7.12 ± 0.13. The “pKD (against CGP 12177)” value at human β1-adrenoceptor [1] (antagonism of CGP 12177 concentration-response curves, low-affinity site 2) is reported as 7.28 ± 0.22. Besides, the “pKD (against cimaterol)” value at human β1-adrenoceptor [1] (antagonism of cimaterol concentration-response curves, high-affinity site 1) is on record as 9.23 ± 0.06. Also, on human β1-adrenoceptor [1] (from partial agonist concentration-response curve, operational model, cimaterol as full agonist, site 2), the “pKA (partial agonism)” value was 7.06 ± 0.13. Further, the “Fraction of BOD-CGP bound to the low-affinity binding site (%)” value on human β1-adrenoceptor [2] came to 42.8 ± 0.9%.

(Values after paper PMC4261997 (British Journal of Pharmacology, 2014).)
